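In this assay, cells in 96-well plates receive the compound at five concentrations for 48 hours. Endpoints are linearly interpolated between the surrounding concentrations. At the TGI there is no net growth.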
Assays:
Assay in all cases: growth of human tumour cells (NCI), 48 h
[1] = tested on: EKVX NSCLC
[2] = tested on: UACC-62 melanoma
[3] = tested on: SF-539 CNS
[4] = tested on: SN12C renal
[5] = tested on: HCC-2998 colon
[6] = tested on: TK-10 renal
[7] = tested on: MDA-MB-435
[8] = tested on: NCI-H522 lung
[9] = tested on: OVCAR-4 ovarian
[10] = tested on: SF-295 CNS
[11] = tested on: UO-31 renal
[12] = tested on: SNB-75 CNS
[13] = tested on: LOX IMVI melanoma
[14] = tested on: OVCAR-5 ovarian
[15] = tested on: MCF7 breast
[16] = tested on: NCI-H226 lung
[17] = tested on: DU-145 prostate
[18] = tested on: MDA-MB-231 breast
[19] = tested on: MALME-3M melanoma
[20] = tested on: SW-620 colon
[21] = tested on: U251 CNS
[22] = tested on: MDA-N
[23] = tested on: CAKI-1 renal
[24] = tested on: M14 melanoma
[25] = tested on: SK-MEL-28 melanoma
[26] = tested on: HOP-62 NSCLC
[27] = tested on: MOLT-4 leukemia
[28] = tested on: NCI/ADR-RES ovarian
[29] = tested on: NCI-H460 lung
[30] = tested on: HS 578T breast
[31] = tested on: NCI-H23 lung
[32] = tested on: RPMI-8226 leukemia
[33] = tested on: SR leukemia
[34] = tested on: SK-MEL-2 melanoma
[35] = tested on: IGROV1 ovarian
[36] = tested on: K-562 leukemia
[37] = tested on: CCRF-CEM leukemia
[38] = tested on: A549 NSCLC
[39] = tested on: SF-268 CNS
[40] = tested on: UACC-257 melanoma
[41] = tested on: HT29 colon
[42] = tested on: ACHN renal
[43] = tested on: SNB-19 CNS
[44] = tested on: SK-OV-3 ovarian
[45] = tested on: HCT-116 colon
[46] = tested on: BT-549 breast
[47] = tested on: KM12 colon
[48] = tested on: T-47D breast
[49] = tested on: SK-MEL-5 melanoma
[50] = tested on: HCT-15 colon
[51] = tested on: RXF 393 renal
[52] = tested on: PC-3 prostate
[53] = tested on: A498 renal
[54] = tested on: COLO 205 colon
[55] = tested on: OVCAR-8 ovarian
[56] = tested on: OVCAR-3 ovarian
[57] = tested on: 786-0 renal
[58] = tested on: HOP-92 NSCLC
[59] = tested on: HL-60(TB) leukemia

Measured: TGI

O=C1C=CC(=O)c2c1ccc1c3ccccc3n(-c3ccccc3[N+](=O)[O-])c21
> 71.5 µM: [4]
> 24.1 µM: [32]
13.1 µM: [40]
5.89 µM: [6]
18.9 µM: [17]
4.9 µM: [35]
> 53.7 µM: [26]
> 31.6 µM: [37]
9 µM: [50]
> 25.3 µM: [45]
50.3 µM: [16]
> 56.7 µM: [10]
12.4 µM: [52]
35.7 µM: [12]
5.19 µM: [48]
20 µM: [15]
37.5 µM: [14]
> 100 µM: [20] | [27] | [29] | [33] | [36]
4.58 µM: [24]
21.2 µM: [21] | [49]
> 64.8 µM: [38]
2.87 µM: [8] | [11]
4.35 µM: [54]
3.24 µM: [51]
35.6 µM: [53]
29.3 µM: [43]
20.5 µM: [28]
23.7 µM: [1]
3.64 µM: [23]
13.2 µM: [5]
10.2 µM: [2] | [9]
19.4 µM: [31]
> 74.1 µM: [41]
6.82 µM: [39]
3.46 µM: [42]
4.76 µM: [13]
> 21.6 µM: [22]
7.88 µM: [18]
50.8 µM: [25]
5.63 µM: [19]
14.6 µM: [46]
35.8 µM: [47]
5.6 µM: [7]
33 µM: [44]
> 65.2 µM: [3]
31.6 µM: [34]
36.4 µM: [30]

O=C1CC(=O)NC(=NNS(=O)(=O)c2ccccc2)N1
not listed: [1] | [13] | [53] | [59]
> 100 µM: all other assays above

Cc1ccc2c(c1)S(=O)(=O)c1ccc3ccccc3c1N2
69.5 µM: [33]
not listed: [12] | [19] | [32]
> 100 µM: all other assays above
